Measured values published in patent publication US20040038958A1, “Topical treatment of skin diseases” (priority 2002, published 2004).
Entries after “also recorded” stand apart in the source; their conditions may differ.

How the values were obtained:
[1] = system: interleukin 4; assay: IL-4 in homogenized mouse ears after TDI challenge (ELISA); assay type: in vivo, BALB/c-mice; details: 24 h after TDI challenge, cilomilast 3%, diflorasone 0.05%; for concentration of interleukin 4 in homogenized mouse ears: topical 2 h before challenge, AWD 12-281 1%; for IL-4, mean inhibition (%) of the TDI induced synthesis: AWD 12-281 3%
Experimental: (§1) One part of the collected ears was fixed in 4% formaldehyde for histological section and stained with haematoxylin-eosin with respect to dermal thickness and granulocyte accumulation. These parameters were measured in 10 fields at 40 times magnification. The remaining tissue was shock-frozen and stored in liquid nitrogen immediately after sampling. For the determination of biochemical parameters, the mice ears were homogenized under liquid nitrogen. The homogenates were taken in 200 μl RPMI 1640 medium and the protease inhibitor Pefabloc® (1 mmol) was added and the samples were mixed intensively. After centrifugation (10000 g, 10 min, 4° C.), the supernatant was collected and the protein content was determined. The samples were stored at −80° C. until the cytokines were determined. Interleukin (IL) 4, IL-6 and MIP-2 were measured in the samples by ELISA using commercially available kits according to manufacturers instructions.

[2] = system: interleukin 6; assay: IL-6 in homogenized mouse ears after TDI challenge (ELISA); assay type: in vivo, BALB/c-mice; details: 24 h after TDI challenge, cilomilast 3%, diflorasone 0.05%; for concentration of interleukin 6 in homogenized mouse ears: topical 2 h before challenge, AWD 12-281 1%; for IL-6, mean inhibition (%) of the TDI induced synthesis: AWD 12-281 3%
Experimental: as §1

[3] = system: mice sensitized to TDI; assay: Mouse ear swelling test in mice sensitized to toluene-2,4-diisocyanate (TDI), topical application; assay type: in vivo, BALB/c-mice; details: for TDI-induced ear swelling: AWD 12-281 1%, cilomilast 3%, diflorasone 0.05%
Experimental: FIG. 6: Effect of PDE 4 inhibitors on TDI induced ear swelling in mice. […] After 1 h (grey bars) groups of mice were treated with 3% AWD 12-281, 10% cilomilast or left untreated (TDI). After 24 h, ear swelling was determined (black bars). […] Female BALB/c-mice were obtained from Charles River (Sulzfeld, Germany) at the age of 8 weeks (20 g body weight). All animals were healthy and were housed in groups of six mice per cage at 22° C. with a 12-h light/dark-cycle. Water and a standard diet (Altromin, […], Germany) were available ad libitum. After settling in for 1 week, the abdominal skin of the mice was shaved and depilated with Veet®. Subsequently, the horny layers of the abdominal skin were stripped off ten times with adhesive tapes. […] Before as well as 24 h after challenge, the ear thickness was measured with a cutimeter (model 7309, Mitutoyo, Neuss, Germany) The swelling was calculated by comparison of the values before challenge with 24 h after challenge. […] The other mice were equally distributed to the treatment groups (n=6) according to their swelling intensity, so that each group contained animals which had responded to varying extents. They had to rest until the ear thickness had reached almost a normal level after 7 days. To exclude residues of the allergen on the ears, the untreated right ears were used for the main experiment. One group of mice (n=6) was not sensitized and challenged. […] Two hours before TDI-challenge, the third and fourth group (each n=6) were treated with 20 μl (10 μl on both, the inner and outer surface) AWD 12-281 (1%=200 μg) or 20 μl cilomilast (3%=600 μg; each in acetone/DMSO 9:1) to the right ears. […] These mice were sacrificed by cervical dislocation 24 hours after TDI challenge and the ears were collected (see below). […] Five weeks after the first challenge, the animals treated with AWD 12-281 (1%) and cilomilast (3%) “therapeutically” were challenged again. Before challenge, one group was treated with AWD 12-281 (3%).

[4] = system: granulocyte influx in the dermis of mice ears; assay: Histological examination of mouse ear skin after TDI challenge; assay type: in vivo, BALB/c-mice; details: mouse ear skin 24 h after TDI challenge; topical treatment
Experimental: as §1

[5] = system: macrophage inflammatory protein 2; assay: MIP-2 in homogenized mouse ears after TDI challenge (ELISA); assay type: in vivo, BALB/c-mice; details: 24 h after TDI challenge, cilomilast 3%, diflorasone 0.05%; for concentration of macrophage inflammatory protein 2 in homogenized mouse ears: topical 2 h before challenge, AWD 12-281 1%; for MIP-2, mean inhibition (%) of the TDI induced synthesis: AWD 12-281 3%
Experimental: as §1

[6] = system: chronic obstructive pulmonary disease; details: Phase II/III clinical trials; Giembycz, 2001, Dyke & Montana, 2002; cited from earlier work
[7] = system: IL-4; details: Griswold et al., 1998; cited from earlier work
[8] = single topical application 2 h before TDI challenge, 1, 5 and 24 h after challenge
[9] = topical 1 h after TDI challenge (therapeutic), 24 h after challenge

SMILES	concentration of interleukin 4 in homogenized mouse ears [1]	IL-4, mean inhibition (%) of the TDI induced synthesis [1]	concentration of interleukin 6 in homogenized mouse ears [2]	IL-6, mean inhibition (%) of the TDI induced synthesis [2]	TDI-induced ear swelling [3, 8]	TDI-induced ear swelling [3, 9]	edema and influx of inflammatory cells (mainly granulocytes) [4]	concentration of macrophage inflammatory protein 2 in homogenized mouse ears [5]	MIP-2, mean inhibition (%) of the TDI induced synthesis [5]	concentration of interleukin 4 in homogenized mouse ears ([1]; listed as Cilomilast)	concentration of interleukin 6 in homogenized mouse ears ([2]; listed as Cilomilast)	TDI-induced ear swelling ([3]; topical 1 h after TDI challenge (therapeutic), 24 h after challenge, listed as Cilomilast)	TDI induced ear swelling ([3]; treated 1 h after 0.5% TDI, 3% AWD 12-281, 10% cilomilast, ear swelling after 24 h (FIG. 6))	concentration of macrophage inflammatory protein 2 in homogenized mouse ears ([5]; listed as Cilomilast)	lung function [6]	IL-4 in vivo [7]
CC(=O)OCC(=O)[C@@]1(OC(C)=O)[C@@H](C)C[C@H]2[C@@H]3C[C@H](F)C4=CC(=O)C=C[C@]4(C)[C@@]3(F)[C@@H](O)C[C@@]21C [diflorasone, reference compound]	reduced the concentration of all mediators significantly; also recorded: inhibited the increase significantly	50%	reduced the concentration of all mediators significantly; also recorded: inhibited this response significantly	52%	inhibited the TDI-induced swelling significantly at all measured times	inhibited the TDI induced ear swelling significantly	inhibited these inflammatory processes markedly	reduced the concentration of all mediators significantly; also recorded: diminished the increase of the MIP-2 concentration significantly	76%							
COc1ccc([C@]2(C#N)CC[C@@H](C(=O)O)CC2)cc1OC1CCCC1 [cilomilast]	inhibited the increase significantly	74%	inhibited this response significantly	49%	inhibited the TDI-induced swelling significantly at all measured times	lacks significant inhibitory effects; also recorded: failed to do so	inhibited these inflammatory processes markedly	diminished the increase of the MIP-2 concentration significantly	66%	reduced the concentration of all mediators significantly	reduced the concentration of all mediators significantly	no significant inhibition; also recorded: slight, but not significant reduction of the swelling	did not show a significant inhibitory effect	reduced the concentration of all mediators significantly	clinically significant increase in lung function	inhibit IL-4 in vivo
